In patent US20240122212A1 (SUNTORY HOLDINGS LIMITED, priority 2020, published 2024):

Assay: Degree of sweetness relative to sucrose
Excerpt: The “sweetness intensity” means an intensity of sweetness of a substance. […] A numerical value obtained by multiplying the degree of sweetness by a concentration Brix value of glucose is the sweetness intensity of glucose in terms of sucrose. Thus, when a concentration of glucose in terms of sucrose is Brix 1.5, the sweetness intensity of glucose is 0.65×1.5=0.975. The sweetness intensity of a sweetener in terms of sucrose can be calculated from a degree of sweetness shown in the following table or a value of a known degree of sweetness.
For example, when the sweetness intensity of sucrose per unit concentration Brix 1 is defined as a degree of sweetness of 1, a degree of sweetness of rebaudioside D is about 200 to 250 (median value 225), a degree of sweetness of rebaudioside M is about 200 to 260 (median value 230), a degree of sweetness of rebaudioside B is about 325, a degree of sweetness of rebaudioside A is about 200 to 300 (median value 250), a degree of sweetness of rebaudioside N is about 200 to 250 (median value 225), a degree of sweetness of rebaudioside O is about 200 to 250 (median value 225), a degree of sweetness of rebaudioside E is about 70 to 80 (median value 75), a degree of sweetness of a Luo han guo extract (containing 40% of Mog V) is about 110 to 150 (median value 130), a degree of sweetness of mogroside V is about 240 to 300 (median value 270), and a degree of sweetness of thaumatin is about 2,000, and a degree of sweetness of brazzein is about 500 to 2,000 (median value 1,250). The numerical value obtained by multiplying these degrees of sweetness by a concentration (w/v % (considered to be the same as w/w % in the case of a beverage)) of the high-intensity sweetener in a fruit juice beverage is a sweetness intensity of the high-intensity sweetener. The relative ratio in degrees of sweetness of various sweeteners to the degree of sweetness of 1 of sucrose can be determined from a known sugar sweetness conversion table, and the like. In the present description, when a degree of sweetness is shown in a numerical value range, the median value may be used. However, a sweetener having different values in a degree of sweetness by literatures, a relative ratio in a degree of sweetness to the degree of sweetness of 1 of sucrose can be defined by a sensory test. Examples of such a sensory test include a method in which samples were prepared by adding sucrose having a sweetness intensity of Brix 3.0 to 5.0 in 0.5 increments to pure water, and of which a sucrose-added sample having a sweetness intensity equal to an aqueous solution of a sweetener in a predetermined concentration is selected.
Additionally, for a sweetener with a variable degree of sweetness as a sweetness intensity increases, degrees of sweetness in different concentrations are actually measured and plotted whereby a degree of sweetness in a predetermined concentration may be calculated from the obtained approximate curve.

O=C[C@@H](O)[C@H](O)[C@H](O)CO [D-Arabinose]
degree of sweetness, times as much as that of sucrose (according to the confirmation by the present inventors): about 0.6 times | degree of sweetness, times as much as that of sucrose (value used to design the sample solutions): 0.6 times | sweetness intensity, times as much as that of sucrose (value used to design the sample solutions of Example 5): 0.6 times
